# According to patent US20090012103A1, “SUBSTITUTED HETEROCYCLIC COMPOUNDS” (priority 2007, published 2009):
# Molecular target: wild-type human cardiac sodium channel, hNav1.5 (Homo sapiens, UniProt Q14524)
# Experiment: Late INa screening assay (late sodium current, PatchXpress whole cell patch clamp)
# Assay type: cell-based
# Settings: compound at 10 μM; read-out: Late INa % blk
# Chain of wild-type human cardiac sodium channel, hNav1.5 (Q14524 whole entry): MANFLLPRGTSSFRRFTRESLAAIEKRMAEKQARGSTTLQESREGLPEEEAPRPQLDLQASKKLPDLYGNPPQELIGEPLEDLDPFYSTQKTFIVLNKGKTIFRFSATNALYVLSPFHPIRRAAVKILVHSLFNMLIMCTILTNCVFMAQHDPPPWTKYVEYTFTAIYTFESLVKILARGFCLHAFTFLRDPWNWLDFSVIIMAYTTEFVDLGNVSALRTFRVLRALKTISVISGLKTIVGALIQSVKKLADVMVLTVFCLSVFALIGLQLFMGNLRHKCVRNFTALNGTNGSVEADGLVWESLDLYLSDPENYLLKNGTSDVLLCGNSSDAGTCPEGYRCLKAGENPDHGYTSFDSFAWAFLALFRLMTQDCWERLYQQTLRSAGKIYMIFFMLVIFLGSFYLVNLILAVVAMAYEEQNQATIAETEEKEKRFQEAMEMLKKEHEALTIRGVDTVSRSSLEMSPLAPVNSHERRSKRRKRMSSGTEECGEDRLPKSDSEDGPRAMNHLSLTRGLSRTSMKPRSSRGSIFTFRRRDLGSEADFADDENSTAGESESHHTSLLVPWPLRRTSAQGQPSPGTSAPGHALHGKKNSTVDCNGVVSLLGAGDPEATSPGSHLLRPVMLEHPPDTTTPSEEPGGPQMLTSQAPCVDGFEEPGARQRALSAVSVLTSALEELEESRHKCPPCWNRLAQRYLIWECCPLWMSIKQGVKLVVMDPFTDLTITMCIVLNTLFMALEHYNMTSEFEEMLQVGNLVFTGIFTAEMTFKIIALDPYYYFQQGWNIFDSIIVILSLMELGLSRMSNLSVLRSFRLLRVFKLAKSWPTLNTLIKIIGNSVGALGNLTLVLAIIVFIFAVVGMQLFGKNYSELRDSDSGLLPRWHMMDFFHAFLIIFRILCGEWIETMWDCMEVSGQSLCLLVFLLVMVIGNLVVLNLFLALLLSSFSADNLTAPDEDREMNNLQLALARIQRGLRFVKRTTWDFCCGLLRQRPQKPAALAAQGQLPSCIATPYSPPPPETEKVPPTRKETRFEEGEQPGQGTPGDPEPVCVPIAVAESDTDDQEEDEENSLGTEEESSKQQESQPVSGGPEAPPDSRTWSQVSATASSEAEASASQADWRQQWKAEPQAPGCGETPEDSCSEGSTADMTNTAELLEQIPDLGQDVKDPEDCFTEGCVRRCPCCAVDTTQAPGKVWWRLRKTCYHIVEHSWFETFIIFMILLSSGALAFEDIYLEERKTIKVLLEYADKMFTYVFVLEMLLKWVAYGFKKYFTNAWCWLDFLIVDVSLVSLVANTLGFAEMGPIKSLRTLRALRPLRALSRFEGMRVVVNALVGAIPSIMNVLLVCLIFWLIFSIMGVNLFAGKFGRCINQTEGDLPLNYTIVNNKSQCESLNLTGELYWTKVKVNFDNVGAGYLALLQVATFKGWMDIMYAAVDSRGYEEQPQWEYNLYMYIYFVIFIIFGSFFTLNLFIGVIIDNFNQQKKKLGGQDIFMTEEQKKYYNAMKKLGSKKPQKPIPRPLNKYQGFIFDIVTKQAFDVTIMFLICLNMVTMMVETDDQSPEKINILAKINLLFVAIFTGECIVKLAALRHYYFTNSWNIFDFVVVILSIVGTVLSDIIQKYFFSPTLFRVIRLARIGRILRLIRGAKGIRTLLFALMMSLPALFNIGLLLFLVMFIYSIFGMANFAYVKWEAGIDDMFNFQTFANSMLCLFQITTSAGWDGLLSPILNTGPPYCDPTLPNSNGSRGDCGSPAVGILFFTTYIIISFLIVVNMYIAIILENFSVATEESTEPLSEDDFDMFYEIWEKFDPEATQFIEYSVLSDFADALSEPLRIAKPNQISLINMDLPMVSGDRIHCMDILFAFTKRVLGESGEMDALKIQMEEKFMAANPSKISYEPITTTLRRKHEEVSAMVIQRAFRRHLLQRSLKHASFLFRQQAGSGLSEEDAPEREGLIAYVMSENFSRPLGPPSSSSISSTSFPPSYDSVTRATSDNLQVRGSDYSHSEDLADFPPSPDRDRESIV
smiles,measurement,value
"CC1=C(C(=O)OCc2ccccc2)C(c2ccccc2-c2ccc(OCc3ccccc3)cc2)n2nnnc2N1 (stereo not drawn) [PT-407, benzyl 7-(4′-(benzyloxy)biphenyl-2-yl)-5-methyl-4,7-dihydrotetrazolo[1,5-a]pyrimidine-6-carboxylate]",inhibition at 10 µM,10.6%
"COc1cc(N(C)C)ccc1C1C(C(=O)OCc2ccccc2)=C(C)Nc2nnnn21 (stereo not drawn) [PT-408, benzyl 7-(4-(dimethylamino)-2-methoxyphenyl)-5-methyl-4,7-dihydrotetrazolo[1,5-a]pyrimidine-6-carboxylate]",inhibition at 10 µM,30.4%
"CC1=C(C(=O)OCc2ccccc2)C(c2ccc(N(C)C)cc2)n2nnnc2N1 (stereo not drawn) [PT-410, benzyl 7-(4-(dimethylamino)phenyl)-5-methyl-4,7-dihydrotetrazolo[1,5-a]pyrimidine-6-carboxylate]",inhibition at 10 µM,11.4%
"COC(=O)c1ccc(C2C(C(=O)OCc3ccccc3)=C(C)Nc3nnnn32)c([N+](=O)[O-])c1 (stereo not drawn) [PT-411, benzyl 7-(4-(methoxycarbonyl)-2-nitrophenyl)-5-methyl-4,7-dihydrotetrazolo[1,5-a]pyrimidine-6-carboxylate]",inhibition at 10 µM,11.4%
"COC(=O)c1ccc(C2C(C(=O)OCc3ccccc3)=C(C)Nc3nnnn32)cc1 (stereo not drawn) [PT-412, benzyl 7-(4-(methoxycarbonyl)phenyl)-5-methyl-4,7-dihydrotetrazolo[1,5-a]pyrimidine-6-carboxylate]",inhibition at 10 µM,27.6%
"CC1=C(C(=O)OCc2ccccc2)C(c2ccc(Br)cc2F)n2nnnc2N1 (stereo not drawn) [PT-416, benzyl 7-(4-bromo-2-fluorophenyl)-5-methyl-4,7-dihydrotetrazolo[1,5-a]pyrimidine-6-carboxylate]",inhibition at 10 µM,25.6%
"COc1cc(C#N)ccc1C1C(C(=O)OCc2ccccc2)=C(C)Nc2nnnn21 (stereo not drawn) [PT-417, benzyl 7-(4-cyano-2-methoxyphenyl)-5-methyl-4,7-dihydrotetrazolo[1,5-a]pyrimidine-6-carboxylate]",inhibition at 10 µM,41.3%
"CC1=C(C(=O)OCc2ccccc2)C(c2ccc(C#N)cc2)n2nnnc2N1 (stereo not drawn) [PT-418, benzyl 7-(4-cyanophenyl)-5-methyl-4,7-dihydrotetrazolo[1,5-a]pyrimidine-6-carboxylate]",inhibition at 10 µM,42.7%
"COc1ccc(C2C(C(=O)OCc3ccccc3)=C(C)Nc3nnnn32)c([N+](=O)[O-])c1 (stereo not drawn) [PT-419, benzyl 7-(4-methoxy-2-nitrophenyl)-5-methyl-4,7-dihydrotetrazolo[1,5-a]pyrimidine-6-carboxylate]",inhibition at 10 µM,44.2%
"COc1ccc(-c2ccccc2C2C(C(=O)OCc3ccccc3)=C(C)Nc3nnnn32)cc1 (stereo not drawn) [PT-420, benzyl 7-(4′-methoxybiphenyl-2-yl)-5-methyl-4,7-dihydrotetrazolo[1,5-a]pyrimidine-6-carboxylate]",inhibition at 10 µM,75.3%
"COc1ccc(C2C(C(=O)OCc3ccccc3)=C(C)Nc3nnnn32)c2ccccc12 (stereo not drawn) [PT-421, benzyl 7-(4-methoxynaphthalen-1-yl)-5-methyl-4,7-dihydrotetrazolo[1,5-a]pyrimidine-6-carboxylate]",inhibition at 10 µM,23.5%
"CCn1c2ccccc2c2cc(C3C(C(=O)OCc4ccccc4)=C(C)Nc4nnnn43)ccc21 (stereo not drawn) [PT-422, benzyl 7-(9-ethyl-9H-carbazol-3-yl)-5-methyl-4,7-dihydrotetrazolo[1,5-a]pyrimidine-6-carboxylate]",inhibition at 10 µM,35.2%
"CCOC(=O)C1=C(C)NC(C)=C(C(=O)OCC)C1c1ccc(OC)cc1OC [PT-429, diethyl 4-(2,4-dimethoxyphenyl)-2,6-dimethyl-1,4-dihydropyridine-3,5-dicarboxylate]",inhibition at 10 µM,14.9%
"CCOC(=O)C1=C(C)NC(C)=C(C(=O)OCC)C1c1ccc(OC)cc1C#N [PT-431, diethyl 4-(2-cyano-4-methoxyphenyl)-2,6-dimethyl-1,4-dihydropyridine-3,5-dicarboxylate]",inhibition at 10 µM,56.1%
"CCOC(=O)C1=C(C)NC(C)=C(C(=O)OCC)C1c1ccc(OC)cc1F [PT-432, diethyl 4-(2-fluoro-4-methoxyphenyl)-2,6-dimethyl-1,4-dihydropyridine-3,5-dicarboxylate]",inhibition at 10 µM,56.9%
